Reference: patent US6939854B2, “Peptide inhibitors of hepatitis C virus NS3 protease” (priority 2000, dated 2005)

Biological target: T1, Human neutrophil elastase (Homo sapiens, UniProt P08246)
T1 construct: purchased ART Biochemicals, Athens, Ga
T1 sequence (P08246 30-267): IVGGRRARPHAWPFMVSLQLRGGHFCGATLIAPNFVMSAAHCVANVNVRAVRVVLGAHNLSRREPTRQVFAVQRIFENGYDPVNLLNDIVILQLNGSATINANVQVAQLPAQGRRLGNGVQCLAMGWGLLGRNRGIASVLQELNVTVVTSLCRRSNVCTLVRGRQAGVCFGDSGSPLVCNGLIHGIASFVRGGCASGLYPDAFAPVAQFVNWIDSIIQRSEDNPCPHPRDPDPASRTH
Assay: Inhibitory selectivity of HCV NS3 protease over elastase (human neutrophil elastase assay)
Assay type: biochemical
Conditions: IC50 (elastase) divided by IC50 (HCV NS3)
Protocol: Selectivity of HCV NS3 over elastase can be calculated by dividing IC50 (elastase) over IC50 (HCV NS3). Similarily, selectivity of HCV NS3 over chymotrypsin can be calculated by dividing IC50 (chymotrypsin) over IC50 (HCV NS3).
Human neutrophil elastase was obtained from ART Biochemicals, Athens, Ga. Stock solutions of lyophilized enzyme (1 mg/ml) were prepared in PBS buffer containing 10% glycerol and stored at −20 ° C. Human neutrophil elastase was assayed with the Meo-Suc-Ala-Ala-Pro-Val-p-nitroanilide (Sigma) as a substrate (C. Kettner and A. Shenvi, 1984). The hydrolysis of substrate was monitored at 405 nm on a Hewlett-Packard spectrophotometer.

| Compound | Selectivity of HCV NS3 vs. elastase |
| --- | --- |
| H-Asp-Glu-Val-Val-Pro-(1R)-1-amino-3-(4-cyclohexyl)phenylpropylboronic acid (+)-pinanediol ester [Example 19] | >10 |
| H-Asp-Glu-Val-Val-Pro-(1R)-1-amino-5-phenylpentylboronic acid (+)-pinanediol ester [Example 5] | 9 |
| H-Asp-Glu-Val-Val-Pro-(1R)-1-amino-3-(3-methyl)phenylpropylboronic acid (+)-pinanediol ester [Example 9] | >10 |
| H-Asp-Glu-Val-Val-Pro-(1R)-1-amino-3-(4-trifluoromethyl)phenylpropylboronic acid (+)-pinanediol ester [Example 14] | >10 |
| H-Asp-Glu-Val-Val-Pro-(1R)-1-amino-3-(4-methyl)phenylpropylboronic acid (+)-pinanediol ester [Example 10] | >10 |
| H-Asp-Glu-Val-Val-Pro-(1R)-1-amino-3-phenylpropylboronic acid (+)-pinanediol ester [Example 3] | >10 |
| H-Asp-Glu-Val-Val-Pro-(1R)-1-amino-3-(4-tert-butyl)phenylpropylboronic acid (+)-pinanediol ester [Example 20] | >10 |
| CC(C)[C@H](NC(=O)c1cnccn1)C(=O)N[C@H](C(=O)N1C[C@H](OCc2ccccc2)C[C@H]1C(=O)N[C@@H](CCc1ccc(C(F)(F)F)cc1)B1OC2CC3CC(C3(C)C)C2(C)O1)C(C)C (stereo partly drawn) [Example 34, (2-pyrazinecarbonyl)-Val-Val-Hyp(OBzl)-(1R)-1-amino-3-(4-trifluoromethyl)phenylpropylboronic acid (+)-pinanediol ester] | 7 |
| H-Asp-Glu-Val-Val-Pro-(1R)-1-amino-3-(4-phenoxy)phenylpropylboronic acid (+)-pinanediol ester [Example 17] | >10 |
| H-Asp-Glu-Val-Val-Pro-(1R)-1-amino-3-(4-fluoro)phenylpropylboronic acid (+)-pinanediol ester [Example 16] | >10 |
| H-Asp-Glu-Val-Val-Pro-(1R)-1-amino-3-(1,1′-biphenyl)-4-ylpropylboronic acid (+)-pinanediol ester [Example 11] | >10 |
| H-Asp-Glu-Val-Val-Pro-(1R)-1-amino-5-methylhexylboronic acid (+)-pinanediol ester [Example 36] | >10 |
| H-Asp-Glu-Val-Val-Pro-(1R)-1-amino-3-(4-methoxy)phenylpropylboronic acid (+)-pinanediol ester [Example 21] | >10 |
| H-Asp-Glu-Val-Val-Pro-(1R)-1-amino-3-(4-isopropyl)phenylpropylboronic acid (+)-pinanediol ester [Example 18] | >10 |
| H-Asp-Glu-Val-Val-Pro-(1R)-1-amino-3-(4-chloro)phenylpropylboronic acid (+)-pinanediol ester [Example 22] | >10 |
| H-Asp-Glu-Val-Val-Pro-(1R)-1-amino-3-(4-bromo)phenylpropylboronic acid (+)-pinanediol ester [Example 23] | >10 |
| H-Asp-Glu-Val-Val-Pro-(1R)-1-amino-3-(4-hydroxy)phenylpropylboronic acid (+)-pinanediol ester [Example 27] | >10 |
